US11208379B2, “Compounds, compositions, methods for treating diseases, and methods for preparing compounds” (UNIVERSITY OF LOUISVILLE RESEARCH FOUNDATION, INC., priority 2017, dated 2021)

System: A549 lung cancer cells
Experiment: Cell death / cell survival by trypan blue exclusion
Format: cell-based, human
Settings: A549, 1 μM, FIG. 36 top panel
Description: A549 (human lung adenocarcinoma) cells and MDA-MB-231 (human breast adenocarcinoma) cells were cultured in DMEM medium containing 10% FBS and 1% Penicillin/Streptomycin. IMR-90 (human non-malignant lung fibroblast) cells were cultured in EMEM medium containing 10% FBS and 1% Penicillin/Streptomycin. MCF10A (human non-malignant breast epithelial) cells in MEBM containing 10% FBS. Cell viability after treatment was determined using 3-(4,5-dimethylthiazol-2-yl)-2,5-diphenyltetrazolium bromide (MTT). After 72 h treatment with compound, a 5 mg/ml solution MTT of (Sigma, St. Louis, Mo.) was added in at 1/10 total sample volume. Cells were then incubated for 4 h. Lysis buffer (10% SDS in 0.01 N HCl) was added at half of the original sample volume and incubated overnight. Plates were read at 570 nm. Graphs indicate average of one or two experiments (performed in quadruplet wells)±SEM. Cell death in A549 cells was assessed by trypan blue exclusion. […] ROS production in A549 lung cancer cells after 48 h treatment with the compounds was assayed using ROS-Glo™ H2O2 Assay Kit (Promega).
A549 (human lung adenocarcinoma) cells and MDA-MB-231 (human breast adenocarcinoma) cells were cultured in DMEM medium containing 10% FBS and 1% Penicillin/Streptomycin. IMR-90 (human non-malignant lung fibroblast) cells were cultured in EMEM medium containing 10% FBS and 1% Penicillin/Streptomycin. […]

CCOC(=S)N/N=C(C)/C(C)=N/NC(=S)NC [I-4]
cell viability (trypan blue exclusion): less effective
